Experiment [1] has as its target α4β7 integrin (Homo sapiens (Human), UniProt P13612+P26010). The experiment in a line: Integrin Adhesion Assay: Protocol 1 (MAdCAM-coated plate, RPMI-8866 cells, CellTiter GLO readout). The format is cell-based. To be noted: integrin adhesion assay; determined by at least one of the assays described (protocol not specified). The essentials:
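RPMI-8866 cells (2×10^6 per mL) added with compounds (1% DMSO) to MAdCAM-coated wells blocked in HEPES/NaCl buffer with 1 mM MnCl2, 0.1 mM CaCl2, 1% BSA; 1 h at 37° C, 5% CO2. After four washes, bound cells read by CellTiter GLO luminescence; % inhibition vs DMSO and control wells, 4-parameter fit.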
For orientation: ATP-based viability assays read luminescence as a measure of living cells.

Experiment [2] concerns the target α4β1 integrin (Homo sapiens (Human), UniProt P05556+P13612). The experiment in a line: Integrin Adhesion Assay: Protocol 2 (VCAM-coated plate, Jurkat cells, CellTiter GLO readout). The format is cell-based. To be noted: determined by at least one of the assays described (protocol not specified). The procedure:
α4β7 and α4β1 inhibition was evaluated in vitro using at least one of the following procedures:
Integrin Adhesion Assay: Protocol 2
VCAM (R&D Systems, 0.1 ug) was diluted in 50 μL PBS, added to each well of an opaque ELISA plate (Thermo), and incubated overnight at 4° C. Coated plates were washed once with PBS and then blocked with 200 μL of assay buffer (10 mM HEPES, 150 mM NaCl, 1 mM MnCl2, 0.1 mM CaCl2), 1% BSA) for 1 hour at 37° C. and 5% CO2. After incubation, buffer was aspirated from the plates and 50 μL of fresh assay buffer was added. Compounds were added by compounds dispenser (Tecan) and DMSO concentration was normalized to 1% across each plate. 50 μL of Jurkat cells (2×10^6 per mL) were added to each well and the plates were incubated for 1 hour at 37° C. and 5% CO2. After incubation, plates were allowed to cool to RT for 10 minutes before being washed four times in assay buffer by an automated plate washer (BioTek). After washing, 100 μL of a 1:1 mixture of assay buffer and CellTiter GLO 2.0 reagent (Promega) were added to each well. Plates were mixed for 2 minutes at 1000 rpm and then allowed to incubate an additional 10 minutes before reading out luminescence on a Tecan Spark plate reader. Raw data was converted to percent inhibition based on DMSO only and control compound wells, and curves were analyzed by 4-parameter fit within Dotmatics software.

Chain of α4β1 integrin (P13612 34-1032): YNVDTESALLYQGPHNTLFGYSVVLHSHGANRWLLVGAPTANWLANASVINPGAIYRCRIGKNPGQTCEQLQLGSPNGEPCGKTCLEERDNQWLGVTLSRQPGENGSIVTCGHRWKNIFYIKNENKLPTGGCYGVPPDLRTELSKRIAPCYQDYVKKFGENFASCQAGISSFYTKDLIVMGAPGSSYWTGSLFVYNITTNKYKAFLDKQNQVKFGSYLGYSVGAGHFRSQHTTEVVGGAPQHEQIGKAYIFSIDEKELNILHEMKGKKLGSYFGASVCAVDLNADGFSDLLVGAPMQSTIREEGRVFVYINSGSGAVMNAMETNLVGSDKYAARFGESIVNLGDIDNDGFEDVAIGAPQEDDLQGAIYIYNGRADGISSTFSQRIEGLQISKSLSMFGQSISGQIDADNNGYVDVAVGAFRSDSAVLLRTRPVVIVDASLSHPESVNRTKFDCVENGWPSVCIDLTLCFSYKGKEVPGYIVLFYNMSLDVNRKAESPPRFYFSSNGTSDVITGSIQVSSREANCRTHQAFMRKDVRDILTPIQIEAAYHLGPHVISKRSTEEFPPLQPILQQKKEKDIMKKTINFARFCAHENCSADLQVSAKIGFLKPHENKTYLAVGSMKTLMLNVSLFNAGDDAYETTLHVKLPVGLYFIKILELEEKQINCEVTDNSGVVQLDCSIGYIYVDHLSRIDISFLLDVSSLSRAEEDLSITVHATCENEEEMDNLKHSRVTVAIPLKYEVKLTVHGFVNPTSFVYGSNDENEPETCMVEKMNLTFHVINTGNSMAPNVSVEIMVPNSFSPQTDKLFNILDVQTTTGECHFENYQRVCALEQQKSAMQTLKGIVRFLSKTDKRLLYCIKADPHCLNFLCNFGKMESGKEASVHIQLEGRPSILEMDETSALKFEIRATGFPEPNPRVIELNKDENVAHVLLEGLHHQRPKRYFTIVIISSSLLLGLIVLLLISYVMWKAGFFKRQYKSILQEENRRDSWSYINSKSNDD
Chain of α4β1 integrin (P05556 21-798): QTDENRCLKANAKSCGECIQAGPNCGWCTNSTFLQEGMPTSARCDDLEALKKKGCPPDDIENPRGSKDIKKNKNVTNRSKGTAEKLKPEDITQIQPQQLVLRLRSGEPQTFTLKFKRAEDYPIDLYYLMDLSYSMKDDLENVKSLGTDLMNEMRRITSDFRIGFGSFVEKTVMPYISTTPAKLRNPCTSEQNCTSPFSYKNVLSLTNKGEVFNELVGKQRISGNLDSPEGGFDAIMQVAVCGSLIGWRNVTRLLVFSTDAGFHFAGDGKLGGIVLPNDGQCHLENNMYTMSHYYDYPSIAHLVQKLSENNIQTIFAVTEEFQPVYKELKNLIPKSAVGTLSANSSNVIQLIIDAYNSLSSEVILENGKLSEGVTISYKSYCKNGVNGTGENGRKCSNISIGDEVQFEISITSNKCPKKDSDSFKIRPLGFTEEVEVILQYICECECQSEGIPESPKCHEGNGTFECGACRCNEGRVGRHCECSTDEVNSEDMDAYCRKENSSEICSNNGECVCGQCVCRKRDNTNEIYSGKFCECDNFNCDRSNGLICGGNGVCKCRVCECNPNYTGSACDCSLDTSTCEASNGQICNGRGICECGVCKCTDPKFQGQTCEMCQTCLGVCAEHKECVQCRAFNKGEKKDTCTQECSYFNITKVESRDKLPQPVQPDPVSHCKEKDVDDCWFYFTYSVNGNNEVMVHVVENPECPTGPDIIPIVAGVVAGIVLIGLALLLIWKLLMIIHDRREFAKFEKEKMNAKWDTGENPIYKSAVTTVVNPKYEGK
Chain of α4β7 integrin (P13612 34-1032): as the sequence (P13612 34-1032) above
Chain of α4β7 integrin (P26010 20-798): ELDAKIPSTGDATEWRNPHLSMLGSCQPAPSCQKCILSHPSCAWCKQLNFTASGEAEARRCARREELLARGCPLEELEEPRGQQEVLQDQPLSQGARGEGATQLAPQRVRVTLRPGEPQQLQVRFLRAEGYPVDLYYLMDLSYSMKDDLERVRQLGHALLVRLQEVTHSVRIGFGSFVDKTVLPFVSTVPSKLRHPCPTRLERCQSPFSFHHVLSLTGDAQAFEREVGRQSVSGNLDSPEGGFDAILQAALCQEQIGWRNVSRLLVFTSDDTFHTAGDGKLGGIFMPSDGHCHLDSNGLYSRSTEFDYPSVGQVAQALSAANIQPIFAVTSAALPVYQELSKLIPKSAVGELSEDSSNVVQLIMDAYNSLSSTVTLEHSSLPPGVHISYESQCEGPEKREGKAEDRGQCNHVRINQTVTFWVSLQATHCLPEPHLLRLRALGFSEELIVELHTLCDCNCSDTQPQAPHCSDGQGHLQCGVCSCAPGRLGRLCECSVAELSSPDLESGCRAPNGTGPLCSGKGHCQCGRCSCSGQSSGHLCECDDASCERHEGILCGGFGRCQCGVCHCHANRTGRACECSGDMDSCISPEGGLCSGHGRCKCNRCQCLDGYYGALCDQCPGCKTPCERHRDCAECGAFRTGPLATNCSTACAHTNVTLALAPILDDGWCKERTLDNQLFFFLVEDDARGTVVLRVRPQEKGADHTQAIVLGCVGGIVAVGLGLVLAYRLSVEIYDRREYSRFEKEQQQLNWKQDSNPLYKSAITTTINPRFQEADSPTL

As usually defined, the IC50 is the concentration at which inhibition is half-maximal. High values mean weaker potency, low ones greater potency. As to `Cn1c(=O)c2ccccc2n(-c2cccc3c(C[C@H](NC(=O)c4c(F)cccc4F)C(=O)O)cccc23)c1=O` [Compound 3], the IC50 is 10 to 100 nM in experiment [1] and above 1000 nM in experiment [2].
`Cn1c(=O)ccn(-c2cccc3c(C[C@H](NC(=O)c4c(F)cccc4F)C(=O)O)cccc23)c1=O` [Compound 4]: the half-inhibitory concentration (IC50) in experiment [1] is 10 to 100 nM; in experiment [2], above 1000 nM.
On the same counts, the results for `Cn1ccc(=O)n(-c2cccc3c(C[C@H](NC(=O)c4c(F)cccc4CN4CCC4)C(=O)O)cccc23)c1=O` [Compound 7] are 10 to 100 nM and above 1000 nM.
Take `Cn1ccc(=O)n(-c2cccc3c(C[C@H](NC(=O)c4c(F)cc(NS(=O)(=O)C(F)(F)F)cc4F)C(=O)O)cccc23)c1=O` [Compound 8]: the IC50 is below 10 nM in experiment [1] and 100 to 1000 nM in experiment [2].
On the same counts, the results for `Cn1ccc(=O)n(-c2cccc3c(C[C@H](NC(=O)c4c(F)cc(NS(=O)(=O)c5ccccc5)cc4F)C(=O)O)cccc23)c1=O` [Compound 9] are below 10 nM and above 1000 nM.
Take `Cn1ccc(=O)n(-c2cccc3c(C[C@H](NC(=O)C4(C)CCOCC4)C(=O)O)cccc23)c1=O` [Compound 10]: the IC50 in experiment [1] lay in the range of 10 to 100 nM; in experiment [2], 100 to 1000 nM.
The like results for `Cn1ccc(=O)n(-c2cccc3c(C[C@H](NC(=O)c4c(F)ccc(NS(=O)(=O)C(F)(F)F)c4F)C(=O)O)cccc23)c1=O` [Compound 12] were, in that order, below 10 nM and 100 to 1000 nM.
Turning to `Cn1ccc(=O)n(-c2cccc3c(C[C@H](NC(=O)c4c(Cl)cccc4Cl)C(=O)O)cccc23)c1=O` [Compound 14], the IC50 is below 10 nM in experiment [1] and above 1000 nM in experiment [2].
For `Cn1ccc(=O)n(-c2cccc3c(C[C@H](NC(=O)c4c(F)cc5nn(CC(F)(F)F)cc5c4F)C(=O)O)cccc23)c1=O` [Compound 15], the IC50 was below 10 nM in experiment [1] and 100 to 1000 nM in experiment [2].
The like results for `Cn1ccc(=O)n(-c2cccc3c(C[C@H](NC(=O)c4c(F)cc5cnn(CC(F)(F)F)c5c4F)C(=O)O)cccc23)c1=O` [Compound 16] were, in that order, below 10 nM and 100 to 1000 nM.
`Cc1nccc(F)c1C(=O)N[C@@H](Cc1cccc2c(-n3c(=O)ccn(C)c3=O)cccc12)C(=O)O` [Compound 17]: the IC50 in experiment [1] is 10 to 100 nM; in experiment [2], above 1000 nM.
On the same counts, the results for `Cn1ccc(=O)n(-c2cccc3c(C[C@H](NC(=O)C4(C)CCN(CC(F)(F)F)CC4)C(=O)O)cccc23)c1=O` [Compound 18] are 10 to 100 nM and above 1000 nM.
The like results for `Cn1ccc(=O)n(-c2cccc3c(C[C@H](NC(=O)c4c(F)cc(NCC(F)(F)F)cc4CN4CCOCC4)C(=O)O)cccc23)c1=O` [Compound 19] were, in that order, below 10 nM and 100 to 1000 nM.
The like results for `Cn1ccc(=O)n(-c2cccc3c(C[C@H](NC(=O)c4c(F)cc(N5CCOC[C@@H]5C(F)(F)F)cc4CN4CCOCC4)C(=O)O)cccc23)c1=O` [Compound 20] were, in that order, below 10 nM and 100 to 1000 nM.
In the case of `CN1CCN(c2cc(F)c(C(=O)N[C@@H](Cc3cccc4c(-n5c(=O)ccn(C)c5=O)cccc34)C(=O)O)c(F)c2)[C@@H](C(F)(F)F)C1` [Compound 21], the IC50 is 10 to 100 nM in experiment [1] and above 1000 nM in experiment [2].
The like results for `CN1CCN(Cc2cc(N3CCOC[C@@H]3C(F)(F)F)cc(F)c2C(=O)N[C@@H](Cc2cccc3c(-n4c(=O)ccn(C)c4=O)cccc23)C(=O)O)CC1` [Compound 22] were, in that order, below 10 nM and above 1000 nM.
The like results for `O=C(N[C@@H](Cc1cccc2c(-c3nccc4ccncc34)cccc12)C(=O)O)c1c(F)cc(N2CCOC[C@@H]2C(F)(F)F)cc1F` [Compound 23] were, in that order, below 10 nM and above 1000 nM.
The like results for `Cn1ccc(=O)n(-c2cccc3c(C[C@H](NC(=O)c4ccc(C(=O)NCCCCN)nc4)C(=O)O)cccc23)c1=O` [Compound 24] were, in that order, above 1000 nM and above 1000 nM.
As to `Cn1ccc(=O)n(-c2cccc3c(C[C@H](NC(=O)c4ccc(C(=O)N5CCc6ccccc6C5)nc4)C(=O)O)cccc23)c1=O` [Compound 25], the IC50 in experiment [1] and in experiment [2] was above 1000 nM throughout.
As to `Cn1ccc(=O)n(-c2cccc3c(C[C@H](NC(=O)c4c(F)cc(C(F)(F)F)cc4F)C(=O)O)cccc23)c1=O` [Compound 26], the IC50 in experiment [1] was 10 to 100 nM; in experiment [2], above 1000 nM.
The like results for `Cn1ccc(=O)n(-c2cccc3c(C[C@H](NC(=O)c4c(F)cc5c(ccn5C)c4F)C(=O)O)cccc23)c1=O` [Compound 27] were, in that order, 10 to 100 nM and above 1000 nM.
On the same counts, the results for `COc1cc(F)c(C(=O)N[C@@H](Cc2cccc3c(-n4c(=O)ccn(C)c4=O)cccc23)C(=O)O)c(F)c1` [Compound 28] are 10 to 100 nM and above 1000 nM.
Consider `Cn1ccc(=O)n(-c2cccc3c(C[C@H](NC(=O)c4c(F)ccc(C(F)(F)F)c4F)C(=O)O)cccc23)c1=O` [Compound 29], for which the IC50 in experiment [1] was 10 to 100 nM; in experiment [2], above 1000 nM.
On the same counts, the results for `CC(C)Oc1cc(F)c(C(=O)N[C@@H](Cc2cccc3c(-n4c(=O)ccn(C)c4=O)cccc23)C(=O)O)c(F)c1` [Compound 30] are 10 to 100 nM and above 1000 nM.
As to `Cn1ccc(=O)n(-c2cccc3c(C[C@H](NC(=O)c4c(F)ccc(OC(F)F)c4F)C(=O)O)cccc23)c1=O` [Compound 31], the IC50 in experiment [1] was in the range of 10 to 100 nM; in experiment [2], 100 to 1000 nM.
On the same counts, the results for `Cn1ccc(=O)n(-c2cccc3c(C[C@H](NC(=O)c4c(F)cc(CN5CCC5)cc4F)C(=O)O)cccc23)c1=O` [Compound 33] are above 1000 nM and above 1000 nM.
The like results for `Cn1ccc(=O)n(-c2cccc3c(C[C@H](NC(=O)c4c(F)cc(CN5CCOCC5)cc4F)C(=O)O)cccc23)c1=O` [Compound 34] were, in that order, 100 to 1000 nM and above 1000 nM.
For the molecule `Cn1ccc(=O)n(-c2cccc3c(C[C@H](NC(=O)C4CCN(CC(F)(F)F)CC4)C(=O)O)cccc23)c1=O` [Compound 35], the IC50 in experiment [1] and in experiment [2] was above 1000 nM in each case.
Turning to `CCN1CCC(C(=O)N[C@@H](Cc2cccc3c(-n4c(=O)ccn(C)c4=O)cccc23)C(=O)O)CC1` [Compound 36], the IC50 in experiment [1] and in experiment [2] was above 1000 nM throughout.
Turning to `O=C(N[C@@H](Cc1cccc2c(-c3nccc4ccncc34)cccc12)C(=O)O)c1c(F)cc(CN2CCC2)cc1F` [Compound 37], the IC50 in experiment [1] and in experiment [2] was above 1000 nM in each case.
Turning to `O=C(N[C@@H](Cc1cccc2c(-c3nccc4ccncc34)cccc12)C(=O)O)c1c(F)cc(CN2CCOCC2)cc1F` [Compound 38], the half-inhibitory concentration (IC50) in experiment [1] is 100 to 1000 nM; in experiment [2] it was above 1000 nM.
Take `O=C(N[C@@H](Cc1cccc2c(-c3nccc4ccncc34)cccc12)C(=O)O)c1c(F)cc(N2CCOC[C@@H]2CC(F)F)cc1F` [Compound 39]: the figures for the IC50 in experiment [1] and in experiment [2] were 10 to 100 nM and above 1000 nM, respectively.
The like results for `Cn1ccc(=O)n(-c2cccc3c(C[C@H](NC(=O)c4c(F)cc5c(c4F)CS(=O)(=O)N5)C(=O)O)cccc23)c1=O` [Compound 43] were, in that order, below 10 nM and 100 to 1000 nM.
For `Cn1ccc(=O)n(-c2cccc3c(C[C@H](NC(=O)c4cc(C(=O)N5CCc6ccccc6C5)n(-c5ccccc5)n4)C(=O)O)cccc23)c1=O` [Compound 44], the IC50 in experiment [1] and in experiment [2] was above 1000 nM each time.
With `Cn1ccc(=O)n(-c2cccc3c(C[C@H](NC(=O)c4cc(C(=O)NCCCCN)n(-c5ccccc5)n4)C(=O)O)cccc23)c1=O` [Compound 45], the half-inhibitory concentration (IC50) in experiment [1] and in experiment [2] was above 1000 nM each time.
On to `O=C(N[C@@H](Cc1cccc2c(-c3nccc4ccncc34)cccc12)C(=O)O)c1c(F)cc(N2CCOC[C@@H]2CC(F)F)cc1CN1CCOCC1` [Compound 46], for which the IC50 in experiment [1] was below 10 nM; in experiment [2] it was above 1000 nM.
Take `O=C(N[C@@H](Cc1cccc2c(-c3cccc4ccncc34)cccc12)C(=O)O)c1c(F)cc(N2CCOC[C@@H]2C(F)(F)F)cc1F` [Compound 47]: the IC50 in experiment [1] was 10 to 100 nM; in experiment [2], above 1000 nM.
In the case of `Cn1ccc(=O)n(-c2cccc3c(C[C@H](NC(=O)c4c(F)cc(N5CCOC[C@@H]5C(F)(F)F)cc4CN4CCCC4)C(=O)O)cccc23)c1=O` [Compound 48], the values for the IC50 in experiment [1] and in experiment [2] were below 10 nM and 100 to 1000 nM, respectively.
For the molecule `Cn1ccc(=O)n(-c2cccc3c(C[C@H](NC(=O)c4ccc5cc(C(=O)N6CCC[C@@H]6c6ccccc6)ccc5c4)C(=O)O)cccc23)c1=O` [Compound 49], the 50% inhibitory concentration (IC50) in experiment [1] and in experiment [2] was above 1000 nM throughout.
As to `CC(=O)N1CCC(C)(C(=O)N[C@@H](Cc2cccc3c(-n4c(=O)ccn(C)c4=O)cccc23)C(=O)O)CC1` [Compound 50], the IC50 in experiment [1] is 100 to 1000 nM; in experiment [2], above 1000 nM.

For the origin of these results see patent publication US20250313535A1, “ALPHA 4 BETA 7 INTEGRIN MODULATORS AND USES THEREOF” (DICE MOLECULES SV, INC., priority 2022, published 2025).
